Laboratory results published in PMC8459971, “Evaluation of the hepatotoxicity of the novel GPR40 (FFAR1) agonist CPL207280 in the rat and monkey” (PLoS ONE, 2021).
“And” between values parts separate entries of the source, which are not always exact repeats. Equal entries are not always repeated.

Tests used:
[1] = molecular target: T1, OAT1 (Homo sapiens, UniProt Q4U2R8); experiment: Uptake transporter inhibition assay, OAT1; details: for Accumulation (counts per minute; CPM) HEK293FT-MOCK / Accumulation (counts per minute; CPM) HEK293FT-OAT1: OAT1;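 also: HEK293FT cells expressing OAT1 or mock, uptake of radiolabeled probe substrate at 37 °C in HBSS pH 7.4 with test compound or solvent, cell lysate read by liquid scintillation counting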
T1 sequence (Q4U2R8 1-563): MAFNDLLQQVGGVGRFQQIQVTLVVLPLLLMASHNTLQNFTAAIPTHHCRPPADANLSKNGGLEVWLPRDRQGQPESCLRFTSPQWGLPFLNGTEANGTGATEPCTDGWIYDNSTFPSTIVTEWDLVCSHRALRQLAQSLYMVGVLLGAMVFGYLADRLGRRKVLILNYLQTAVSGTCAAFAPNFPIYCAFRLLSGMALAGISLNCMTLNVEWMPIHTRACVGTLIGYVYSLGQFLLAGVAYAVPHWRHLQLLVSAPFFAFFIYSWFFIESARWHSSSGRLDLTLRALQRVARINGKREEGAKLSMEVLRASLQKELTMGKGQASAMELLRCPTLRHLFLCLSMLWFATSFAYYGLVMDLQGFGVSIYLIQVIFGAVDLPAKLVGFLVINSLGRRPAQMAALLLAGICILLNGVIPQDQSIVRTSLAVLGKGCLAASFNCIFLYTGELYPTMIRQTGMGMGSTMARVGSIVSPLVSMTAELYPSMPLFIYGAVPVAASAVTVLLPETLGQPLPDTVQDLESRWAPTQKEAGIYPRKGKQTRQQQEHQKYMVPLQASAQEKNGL
Protocol: (§2) For the uptake transporter inhibition assay, cells were washed twice with 100 μL of the appropriate buffer (HK, pH 7.4) for OATP1B1, followed by HBSS (pH 7.4) for (NTCP, OAT1, OAT2v1, OATP1A2, and OATP1B3). Uptake experiments were carried out at 37 ± 1°C in 50 μL of the respective buffer containing the probe substrate and the compound or solvent. […] After the experiment, cells were washed twice with 100 μL of cold appropriate buffer and lysed with 50 μL of 0.1 M NaOH. Radiolabeled probe substrate transport was determined by measuring an aliquot (35 μL) from each well for liquid scintillation counting.

[2] = Stability in microsomes, mini pig; assay type: in vitro ADME; details: for average DEG [%]: minipig microsomes, with cofactors
Protocol: (§1) The final incubation volume was 500 μL. Two control compounds (verapamil and donepezil) were included for each microsomal species, along with the appropriate vehicle control. The reactions were terminated by transferring 50 μL of incubate to 100 μL methanol containing an internal standard (metoprolol) at appropriate time points (0, 10, 20, 40, 60, and 120 min for the test compound and 0, 5, 10, 20, 40, and 60 min for the control compounds). The termination plates were centrifuged at 4000 x g at 4°C for 30 min to precipitate the protein. The supernatants were then collected for analysis, and LC-MS/MS was used for detection purposes. The system consisted of an Acquity™ Binary Solvent Manager, Acquity™ 4-position heated column manager, 2777 Ultra High Pressure Autosampler, and a Xevo-TQ MS triple quadrupole mass spectrometer (Waters Ltd., Herts, UK). This process was carried out twice.

[3] = Stability in microsomes, monkey; assay type: in vitro ADME; details: for average DEG [%]: monkey microsomes, with cofactors
Protocol: as §1

[4] = Stability in microsomes, rat; assay type: in vitro ADME; details: for average DEG [%]: rat microsomes, with cofactors
Protocol: as §1

[5] = Pharmacokinetics in mice, serum and liver concentrations; details: for serum conc: mouse, 3 mg/kg p.o., individual animals, 3 mg/kg
Protocol: The mice were separated into four groups of 32 mice per group. […] At time point t = 0, animals received a single dose of the compounds orally. […] Four hours after drug administration, the animals received standard chow. […] After solubilization in extraction buffer, the solutions were shaken for 1 min and then centrifuged for 4 min (4000 x g).

[6] = molecular target: MRP3 (Homo sapiens, UniProt O15438); experiment: Vesicular transport inhibition assay, MRP3; details: for Accumulation (counts per minute; CPM) with AMP / Accumulation (counts per minute; CPM) with ATP: MRP3;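 also: membrane vesicles with radiolabelled probe substrate and 2 mM glutathione, 4 mM ATP versus AMP background control, vesicle-trapped substrate quantified by liquid scintillation counting after filtration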;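 as to Accumulation (counts per minute; CPM) with AMP: ATP 4 mM vs AMP background separates transporter uptake from diffusion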;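 as to Accumulation (counts per minute; CPM) with ATP: ATP 4 mM vs AMP background separates transporter uptake from diffusion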
Chain of MRP3 (O15438 whole entry, the tested form may be a part): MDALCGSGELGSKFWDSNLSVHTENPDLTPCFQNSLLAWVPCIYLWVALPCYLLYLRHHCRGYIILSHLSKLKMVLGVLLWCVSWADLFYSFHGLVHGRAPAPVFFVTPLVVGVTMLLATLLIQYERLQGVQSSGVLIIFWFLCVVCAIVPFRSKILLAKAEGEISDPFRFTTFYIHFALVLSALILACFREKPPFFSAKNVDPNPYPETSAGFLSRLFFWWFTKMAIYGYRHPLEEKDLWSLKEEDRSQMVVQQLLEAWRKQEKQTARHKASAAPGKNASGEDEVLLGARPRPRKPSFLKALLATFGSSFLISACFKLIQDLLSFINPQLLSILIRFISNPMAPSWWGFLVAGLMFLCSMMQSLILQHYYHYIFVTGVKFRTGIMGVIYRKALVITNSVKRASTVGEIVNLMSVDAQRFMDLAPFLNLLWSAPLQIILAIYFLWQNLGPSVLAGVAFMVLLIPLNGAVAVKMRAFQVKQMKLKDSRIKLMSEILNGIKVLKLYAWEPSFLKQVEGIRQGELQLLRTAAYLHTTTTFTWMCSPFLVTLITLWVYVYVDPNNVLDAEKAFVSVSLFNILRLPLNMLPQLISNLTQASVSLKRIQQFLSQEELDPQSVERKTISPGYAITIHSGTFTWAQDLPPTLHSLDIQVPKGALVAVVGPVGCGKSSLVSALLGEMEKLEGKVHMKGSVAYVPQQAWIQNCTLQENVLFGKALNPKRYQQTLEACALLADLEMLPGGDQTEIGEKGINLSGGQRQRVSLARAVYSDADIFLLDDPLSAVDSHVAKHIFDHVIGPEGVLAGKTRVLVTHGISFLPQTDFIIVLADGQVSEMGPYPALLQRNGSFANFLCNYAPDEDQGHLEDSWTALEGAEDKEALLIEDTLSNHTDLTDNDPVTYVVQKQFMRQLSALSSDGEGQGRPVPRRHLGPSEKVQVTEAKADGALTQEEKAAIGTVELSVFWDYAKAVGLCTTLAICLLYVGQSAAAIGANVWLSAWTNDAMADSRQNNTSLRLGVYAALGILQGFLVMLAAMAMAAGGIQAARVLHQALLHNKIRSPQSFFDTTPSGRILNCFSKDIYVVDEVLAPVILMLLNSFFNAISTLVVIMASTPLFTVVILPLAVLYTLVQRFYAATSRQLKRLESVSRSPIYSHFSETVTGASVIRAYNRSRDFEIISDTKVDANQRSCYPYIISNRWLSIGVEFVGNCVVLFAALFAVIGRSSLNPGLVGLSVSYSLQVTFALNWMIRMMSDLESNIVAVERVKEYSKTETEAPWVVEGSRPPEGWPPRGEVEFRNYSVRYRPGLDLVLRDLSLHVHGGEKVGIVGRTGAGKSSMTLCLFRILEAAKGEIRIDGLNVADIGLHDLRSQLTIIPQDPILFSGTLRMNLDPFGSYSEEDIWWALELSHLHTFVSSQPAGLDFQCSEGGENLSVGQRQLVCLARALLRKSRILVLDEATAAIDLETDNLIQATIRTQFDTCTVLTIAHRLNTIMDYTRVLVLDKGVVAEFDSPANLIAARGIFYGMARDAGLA
Protocol: (§3) In the vesicular transport inhibition assay (for BSEP, MRP) compounds were incubated with membrane vesicle preparations and the probe substrate. Incubations were carried out in the presence of 4 mM ATP or AMP to distinguish between transporter-mediated uptake and passive diffusion into the vesicles. For MRP2 and MRP3, reactions were carried out in the presence of 2 mM glutathione. Compounds were added to the reaction mixture in 0.75 μL of solvent (1% of the final incubation volume). […] Reactions were initiated by the addition of 25 μL of 12 mM MgATP (or 12 mM AMP in assay buffer as a background control) and preincubated separately. Reactions were quenched by the addition of 200 μL of ice-cold washing buffer and immediate filtration via glass fiber filters mounted on a 96-well plate (filter plate). The filters were washed (5 × 200 μL of ice-cold washing buffer), dried, and the amount of substrate inside the filtered vesicles was determined by liquid scintillation counting.

[7] = molecular target: BSEP (Homo sapiens, UniProt O95342); experiment: Vesicular transport inhibition assay, BSEP
Chain of BSEP (O95342 whole entry): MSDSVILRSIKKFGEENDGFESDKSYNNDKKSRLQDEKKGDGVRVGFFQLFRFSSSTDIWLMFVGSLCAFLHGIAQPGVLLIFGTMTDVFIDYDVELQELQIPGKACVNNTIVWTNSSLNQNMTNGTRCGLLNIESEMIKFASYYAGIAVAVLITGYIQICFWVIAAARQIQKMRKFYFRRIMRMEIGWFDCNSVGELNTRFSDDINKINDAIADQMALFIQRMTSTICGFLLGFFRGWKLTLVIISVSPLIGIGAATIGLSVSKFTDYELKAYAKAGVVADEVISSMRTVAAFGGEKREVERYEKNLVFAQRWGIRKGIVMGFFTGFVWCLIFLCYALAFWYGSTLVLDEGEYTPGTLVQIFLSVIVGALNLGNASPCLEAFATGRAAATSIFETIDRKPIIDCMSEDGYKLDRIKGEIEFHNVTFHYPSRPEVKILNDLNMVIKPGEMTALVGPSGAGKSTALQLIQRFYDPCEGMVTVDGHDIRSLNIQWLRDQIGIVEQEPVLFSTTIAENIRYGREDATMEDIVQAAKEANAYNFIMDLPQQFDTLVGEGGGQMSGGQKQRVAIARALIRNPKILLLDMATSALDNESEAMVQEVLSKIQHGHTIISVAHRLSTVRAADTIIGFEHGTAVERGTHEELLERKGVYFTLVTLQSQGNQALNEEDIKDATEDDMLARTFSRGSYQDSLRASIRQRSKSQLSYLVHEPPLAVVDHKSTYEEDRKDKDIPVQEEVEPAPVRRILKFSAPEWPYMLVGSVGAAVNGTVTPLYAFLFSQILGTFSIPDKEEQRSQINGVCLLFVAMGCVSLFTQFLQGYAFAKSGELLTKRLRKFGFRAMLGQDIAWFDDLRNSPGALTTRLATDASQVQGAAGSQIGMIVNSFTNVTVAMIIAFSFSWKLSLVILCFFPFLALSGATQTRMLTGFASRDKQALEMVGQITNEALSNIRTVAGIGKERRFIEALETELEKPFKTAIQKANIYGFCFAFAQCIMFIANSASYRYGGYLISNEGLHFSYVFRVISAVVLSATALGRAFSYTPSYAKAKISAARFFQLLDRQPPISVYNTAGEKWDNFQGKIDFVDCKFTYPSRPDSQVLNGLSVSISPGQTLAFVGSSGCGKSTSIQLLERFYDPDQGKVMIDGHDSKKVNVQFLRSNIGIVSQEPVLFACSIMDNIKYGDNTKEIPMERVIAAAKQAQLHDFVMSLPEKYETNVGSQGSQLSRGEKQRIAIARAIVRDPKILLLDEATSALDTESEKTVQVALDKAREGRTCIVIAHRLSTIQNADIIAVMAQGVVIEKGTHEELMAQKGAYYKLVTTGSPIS
Protocol: as §3

[8] = molecular target: OATP1A2 (Homo sapiens, UniProt P46721); experiment: Uptake transporter inhibition assay, OATP1A2; details: for Accumulation (counts per minute; CPM) HEK293FT-MOCK / Accumulation (counts per minute; CPM) HEK293FT-OATP1A2: OATP1A2;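 also: cellular uptake of a radiolabeled probe substrate in HBSS pH 7.4 at 37 °C with test compound or solvent, measured by liquid scintillation counting of cell lysates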
Chain of OATP1A2 (P46721 whole entry): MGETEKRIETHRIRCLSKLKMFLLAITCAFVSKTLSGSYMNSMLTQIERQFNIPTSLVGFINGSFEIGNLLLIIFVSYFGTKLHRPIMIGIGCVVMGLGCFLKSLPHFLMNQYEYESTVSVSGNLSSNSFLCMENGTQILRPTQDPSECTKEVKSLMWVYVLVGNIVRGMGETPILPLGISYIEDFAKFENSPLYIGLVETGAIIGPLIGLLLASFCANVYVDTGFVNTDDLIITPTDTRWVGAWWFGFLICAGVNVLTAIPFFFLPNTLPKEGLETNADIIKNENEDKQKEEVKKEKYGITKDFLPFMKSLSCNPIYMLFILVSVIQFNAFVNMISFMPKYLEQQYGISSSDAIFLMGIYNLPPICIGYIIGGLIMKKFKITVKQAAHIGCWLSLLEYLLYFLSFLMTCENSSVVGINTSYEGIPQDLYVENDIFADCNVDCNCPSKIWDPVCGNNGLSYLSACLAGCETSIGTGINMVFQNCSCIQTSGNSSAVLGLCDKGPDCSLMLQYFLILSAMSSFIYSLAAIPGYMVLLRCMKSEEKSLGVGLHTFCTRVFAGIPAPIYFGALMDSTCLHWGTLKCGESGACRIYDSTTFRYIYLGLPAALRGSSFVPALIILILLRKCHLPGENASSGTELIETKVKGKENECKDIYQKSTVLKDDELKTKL
Protocol: as §2

[9] = Mini pig microsomes, mean n = 2
[10] = Monkey (Cynomolgus) microsomes, mean n = 2
[11] = Rat (Sprague Dawley) microsomes, mean n = 2

CC#C[C@@H](CC(=O)O)c1ccc(OCC(C)=C(C)C)cc1 [CPL207280]
IC50 [1]: 245 µM | fold less inhibitory potency than TAK-875, OAT1 [1]: at least 10 fold | Accumulation (counts per minute; CPM) HEK293FT-MOCK ([1]; conc 0.10 µM): 50 CPM and 53 CPM | Accumulation (counts per minute; CPM) HEK293FT-OAT1 ([1]; conc 0.10 µM): 3966 CPM and 4397 CPM | Accumulation (counts per minute; CPM) HEK293FT-MOCK ([1]; conc 1.00 µM): 48 CPM and 53 CPM | Accumulation (counts per minute; CPM) HEK293FT-OAT1 ([1]; conc 1.00 µM): 3796 CPM and 3875 CPM | Accumulation (counts per minute; CPM) HEK293FT-MOCK ([1]; conc 3.00 µM): 43 CPM | Accumulation (counts per minute; CPM) HEK293FT-OAT1 ([1]; conc 3.00 µM): 3567 CPM and 3805 CPM | Accumulation (counts per minute; CPM) HEK293FT-OAT1 ([1]; conc 10.00 µM): 3588 CPM and 3708 CPM | Accumulation (counts per minute; CPM) HEK293FT-MOCK ([1]; conc 30.00 µM): 36 CPM and 51 CPM | Accumulation (counts per minute; CPM) HEK293FT-OAT1 ([1]; conc 30.00 µM): 3509 CPM and 3520 CPM | Accumulation (counts per minute; CPM) HEK293FT-MOCK ([1]; conc 100.00 µM): 35 CPM and 46 CPM | Accumulation (counts per minute; CPM) HEK293FT-OAT1 ([1]; conc 100.00 µM): 2841 CPM and 2828 CPM | Accumulation (counts per minute; CPM) HEK293FT-MOCK ([1]; conc 300.00 µM): 36 CPM and 54 CPM | Accumulation (counts per minute; CPM) HEK293FT-OAT1 ([1]; conc 300.00 µM): 1655 CPM and 1827 CPM | half-life at 3 μM [2, 9]: 31 min | microsomal CLint at 3 μM [2, 9]: 45 µL/min/mg | average DEG [%] ([2]; 0 min): 100.0% | average DEG [%] ([2]; 20 min): 67.0% | average DEG [%] ([2]; 40 min): 40.9% | average DEG [%] ([2]; 60 min): 26.3% | half-life at 3 μM [3, 10]: 23 min | microsomal CLint at 3 μM [3, 10]: 60.9 µL/min/mg | average DEG [%] ([3]; 0 min): 100.0% | average DEG [%] ([3]; 20 min): 64.8% | average DEG [%] ([3]; 40 min): 34.1% | average DEG [%] ([3]; 60 min): 16.3% | half-life at 3 μM [4, 11]: 69 min | microsomal CLint at 3 μM [4, 11]: 21.1 µL/min/mg | average DEG [%] ([4]; 0 min): 100.0% | average DEG [%] ([4]; 20 min): 80.9% | average DEG [%] ([4]; 40 min): 64.9% | average DEG [%] ([4]; 60 min): 55.0% | distribution between liver and serum ([5]; mice, single oral dose 3 mg/kg, 15 min to 24 h): serum was observed to be the central compartment | serum conc ([5]; 0.5 h): 6337 and 10977.8 and 8698.6 and 7860.2 | serum conc ([5]; 1 h): 14190.2 and 17872.7 and 14644.7 and 11914.7 | serum conc ([5]; 2 h): 4293.9 and 8727 and 12877.2 and 5407.3 | serum conc ([5]; 4 h): 1048.2 and 2271.3 and 3572 and 4146.1 | serum conc ([5]; 7 h): 456.3 and 1659.3 and 757.1 and 1712.9 | serum conc ([5]; 12 h): 198.5 and 247.1 and 27.4 and 10.5 | serum conc ([5]; 24 h): 14.5 and 37.9 and 532.6 and 298 | Penetration into the liver ([5]; summary comparison CPL207280 vs TAK-875): < | Accumulation (counts per minute; CPM) with AMP ([6]; conc 0.10 µM): 240 CPM and 237 CPM | Accumulation (counts per minute; CPM) with ATP ([6]; conc 0.10 µM): 3273 CPM and 4152 CPM | Accumulation (counts per minute; CPM) with AMP ([6]; conc 1.00 µM): 221 CPM and 228 CPM | Accumulation (counts per minute; CPM) with ATP ([6]; conc 1.00 µM): 4818 CPM and 3968 CPM | Accumulation (counts per minute; CPM) with AMP ([6]; conc 3.00 µM): 249 CPM and 236 CPM | Accumulation (counts per minute; CPM) with ATP ([6]; conc 3.00 µM): 4175 CPM and 4726 CPM | Accumulation (counts per minute; CPM) with AMP ([6]; conc 10.00 µM): 274 CPM and 219 CPM | Accumulation (counts per minute; CPM) with ATP ([6]; conc 10.00 µM): 3924 CPM and 3961 CPM | Accumulation (counts per minute; CPM) with AMP ([6]; conc 30.00 µM): 231 CPM and 249 CPM | Accumulation (counts per minute; CPM) with ATP ([6]; conc 30.00 µM): 5849 CPM and 5611 CPM | Accumulation (counts per minute; CPM) with AMP ([6]; conc 100.00 µM): 250 CPM and 247 CPM | Accumulation (counts per minute; CPM) with ATP ([6]; conc 100.00 µM): 5885 CPM and 4953 CPM | Accumulation (counts per minute; CPM) with AMP ([6]; conc 300.00 µM): 206 CPM and 163 CPM | Accumulation (counts per minute; CPM) with ATP ([6]; conc 300.00 µM): 6861 CPM and 6621 CPM | MRP3 Estimated IC50 (95% CI of IC50) ([6]; vesicles, up to 300μM, n = 2): no affinity | Accumulation (counts per minute; CPM) HEK293-BSEP ([7]; conc 0.41 µM): 13312 CPM and 13786 CPM and 14638 CPM | Accumulation (counts per minute; CPM) HEK293-MOCK ([7]; conc 0.41 µM): 373 CPM and 338 CPM and 317 CPM | Accumulation (counts per minute; CPM) HEK293-BSEP ([7]; conc 1.23 µM): 14288 CPM and 14991 CPM and 14336 CPM | Accumulation (counts per minute; CPM) HEK293-MOCK ([7]; conc 1.23 µM): 402 CPM and 297 CPM and 306 CPM | Accumulation (counts per minute; CPM) HEK293-BSEP ([7]; conc 3.70 µM): 14804 CPM and 15510 CPM and 14684 CPM | Accumulation (counts per minute; CPM) HEK293-MOCK ([7]; conc 3.70 µM): 350 CPM and 288 CPM and 349 CPM | Accumulation (counts per minute; CPM) HEK293-BSEP ([7]; conc 11.11 µM): 14585 CPM and 13490 CPM and 14701 CPM | Accumulation (counts per minute; CPM) HEK293-MOCK ([7]; conc 11.11 µM): 382 CPM and 355 CPM and 370 CPM | Accumulation (counts per minute; CPM) HEK293-BSEP ([7]; conc 33.33 µM): 14312 CPM and 13194 CPM and 13689 CPM | Accumulation (counts per minute; CPM) HEK293-MOCK ([7]; conc 33.33 µM): 426 CPM and 364 CPM and 386 CPM | Accumulation (counts per minute; CPM) HEK293-BSEP ([7]; conc 100 µM): 10784 CPM and 11964 CPM and 11554 CPM | Accumulation (counts per minute; CPM) HEK293-MOCK ([7]; conc 100 µM): 273 CPM and 371 CPM | IC50 [8]: 118 µM | fold less inhibitory potency than TAK-875, OATP1A2 [8]: at least 10 fold | Accumulation (counts per minute; CPM) HEK293FT-MOCK ([8]; conc 0.10 µM): 191 CPM and 198 CPM | Accumulation (counts per minute; CPM) HEK293FT-OATP1A2 ([8]; conc 0.10 µM): 9941 CPM and 9363 CPM | Accumulation (counts per minute; CPM) HEK293FT-MOCK ([8]; conc 1.00 µM): 175 CPM and 167 CPM | Accumulation (counts per minute; CPM) HEK293FT-OATP1A2 ([8]; conc 1.00 µM): 9582 CPM and 8309 CPM | Accumulation (counts per minute; CPM) HEK293FT-MOCK ([8]; conc 3.00 µM): 170 CPM and 189 CPM | Accumulation (counts per minute; CPM) HEK293FT-OATP1A2 ([8]; conc 3.00 µM): 9105 CPM and 8526 CPM | Accumulation (counts per minute; CPM) HEK293FT-MOCK ([8]; conc 10.00 µM): 199 CPM and 184 CPM | Accumulation (counts per minute; CPM) HEK293FT-OATP1A2 ([8]; conc 10.00 µM): 8813 CPM and 8062 CPM | Accumulation (counts per minute; CPM) HEK293FT-MOCK ([8]; conc 30.00 µM): 160 CPM and 178 CPM | Accumulation (counts per minute; CPM) HEK293FT-OATP1A2 ([8]; conc 30.00 µM): 6805 CPM and 7468 CPM | Accumulation (counts per minute; CPM) HEK293FT-MOCK ([8]; conc 100.00 µM): 179 CPM and 165 CPM | Accumulation (counts per minute; CPM) HEK293FT-OATP1A2 ([8]; conc 100.00 µM): 5379 CPM and 5182 CPM | Accumulation (counts per minute; CPM) HEK293FT-MOCK ([8]; conc 300.00 µM): 144 CPM and 136 CPM | Accumulation (counts per minute; CPM) HEK293FT-OATP1A2 ([8]; conc 300.00 µM): 2696 CPM and 2783 CPM
